Like-named read-outs stand apart in the source and are kept apart here. Marks after values point to notes of the source that are not given here.
Assays:
[1] = test system: postmenopausal women with osteoporosis; conditions: in vivo
Method: (§1) Safety evaluations performed in the ACTIVE trial included physical examinations, vital signs, 12-lead electrocardiograms, or ECGs, clinical laboratory tests and monitoring, and recording of adverse events. Specific safety assessments included pre-dose and post-dose (four hours) determination of serum calcium, determination of creatinine clearance, post-dose ECG assessments at selected visits, and assessments of postural hypotension (60 minutes post-dose) at selected clinic visits.
(§2) The ACTIVE trial also evaluated several potential safety measures, including blood calcium levels, orthostatic hypotension, nausea, dizziness, and injection-site reactions.

[2] = test system: postmenopausal women with osteoporosis; conditions: in vivo; remark: listed apart in the source
Method: All subjects received supplemental calcium (500-1000 mg) and vitamin D (400-800 IU) per local practice. […] Blood calcium levels were assessed 4-hours and 24-hours after drug administration. Subjects were monitored for adverse events (AEs) and local tolerance at the injection site at each visit. Clinical and laboratory safety parameters, electrocardiograms, were also measured at each study visit.
Efficacy and safety were assessed using all randomized patients who received at least one dose of study drug. Baseline characteristics and safety parameters were summarized using descriptive statistics. […] All hypotheses were tested at the 2-sided 5% significance level.

[3] = test system: postmenopausal women with osteoporosis; test: ACTIVE trial: adverse events; conditions: 18 months; abaloparatide 80 μg (n = 822), teriparatide 20 μg (n = 818)
Method: as §1, §2

[4] = test system: postmenopausal women with osteoporosis
[5] = test system: postmenopausal women with osteoporosis; test: ACTIVExtend study: fractures at month 25 (abaloparatide or placebo 18 months, then alendronate 6 months); type: in vivo, human; conditions: abaloparatide 80 μg/day or placebo 18 months
[6] = during alendronate treatment, ACTIVExtend

## CC[C@H](C)[C@H](NC(=O)[C@H](CO)NC(=O)[C@H](CCCCN)NC(=O)CNC(=O)[C@H](CCCCN)NC(=O)[C@H](CC(=O)O)NC(=O)[C@H](Cc1cnc[nH]1)NC(=O)[C@H](CC(C)C)NC(=O)[C@H](CC(C)C)NC(=O)[C@H](CCC(N)=O)NC(=O)[C@H](Cc1cnc[nH]1)NC(=O)[C@H](CCC(=O)O)NC(=O)[C@H](CO)NC(=O)[C@@H](NC(=O)[C@H](C)N)C(C)C)C(=O)N[C@@H](CCC(N)=O)C(=O)N[C@@H](CC(=O)O)C(=O)N[C@@H](CC(C)C)C(=O)N[C@@H](CCCNC(=N)N)C(=O)N[C@@H](CCCNC(=N)N)C(=O)N[C@@H](CCCNC(=N)N)C(=O)N[C@@H](CCC(=O)O)C(=O)N[C@@H](CC(C)C)C(=O)N[C@@H](CC(C)C)C(=O)N[C@@H](CCC(=O)O)C(=O)N[C@@H](CCCCN)C(=O)N[C@@H](CC(C)C)C(=O)N[C@@H](CC(C)C)C(=O)NC(C)(C)C(=O)N[C@@H](CCCCN)C(=O)N[C@@H](CC(C)C)C(=O)N[C@@H](Cc1cnc[nH]1)C(=O)N[C@H](C(=O)N[C@@H](C)C(N)=O)[C@@H](C)O [abaloparatide, [Glu^22,25, Leu^23,28,31, Aib^29, Lys^26,30]hPTHrP(1-34)NH2]
[1]
  AE: Hypercalcemia (serum albumin-corrected calcium value ≧10.7 mg/dL): 3.41%^†
[2]
  Anti-abaloparatide antibody titer in positive patients: ≤ 1:20
  Patients with positive anti-abaloparatide antibody titer: 12%
[3]
  AE: Influenza: 6.3%

## alendronate [PBO/ALN]
[4]; [6]
  AE: Abdominal pain, upper: 2.6%
  AE: Arthralgia: 4.7%
  AE: Back pain: 2.1%
  AE: Bone Pain: 1.2%
  AE: Diarrhea: 1.4%
  AE: Dyspepsia: 2.2%
  AE: Hypercalciuria: 1.6%
  AE: Hypertension: 2.1%
  AE: Nasopharyngitis: 1.4%
  AE: Pain in extremity: 2.4%
  AE: Upper respiratory tract infection: 4.5%
  AE: Urinary tract infection: 1.0%
[4]; human, in vivo
  AE: Influenza: 1.0%
[5]
  Fracture Rate, incident clinical fractures: 7.1%
  Fracture Rate, incident non-vertebral fractures: 5.5%
  Fracture Rate, major osteoporotic fractures: 4.6%
  Fracture Rate, new incident vertebral fractures: 4.4%

Source: patent US20170368148A1, “USES OF A PTHrP ANALOGUE IN REDUCING FRACTURE RISK” (RADIUS HEALTH, INC., priority 2015, published 2017)
